# Assay results reported in PubChem BioAssay (NCI).
#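 In this assay, cells in 96-well plates receive the compound at five concentrations for 48 hours. Endpoints are linearly interpolated between the surrounding concentrations. At the GI50, growth is halved. TGI: total growth inhibition.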
# Key:
# Test in all cases: NCI-60 cell line screen, 48 h
# ACHN renal = test system: ACHN renal
# COLO 205 colon = test system: COLO 205 colon
# HOP-92 NSCLC = test system: HOP-92 NSCLC
# MDA-MB-231 breast = test system: MDA-MB-231 breast
# OVCAR-5 ovarian = test system: OVCAR-5 ovarian
# SF-268 CNS = test system: SF-268 CNS
# TK-10 renal = test system: TK-10 renal
# U251 CNS = test system: U251 CNS
# MALME-3M melanoma = test system: MALME-3M melanoma
# A498 renal = test system: A498 renal
SMILES,GI50 (ACHN renal) [µM],TGI (ACHN renal) [µM],GI50 (COLO 205 colon) [µM],TGI (COLO 205 colon) [µM],GI50 (HOP-92 NSCLC) [µM],TGI (HOP-92 NSCLC) [µM],GI50 (MDA-MB-231 breast) [µM],TGI (MDA-MB-231 breast) [µM],GI50 (OVCAR-5 ovarian) [µM],TGI (OVCAR-5 ovarian) [µM],GI50 (SF-268 CNS) [µM],TGI (SF-268 CNS) [µM],GI50 (TK-10 renal) [µM],TGI (TK-10 renal) [µM],GI50 (U251 CNS) [µM],TGI (U251 CNS) [µM],TGI (MALME-3M melanoma) [µM],GI50 (MALME-3M melanoma) [µM],TGI (A498 renal) [µM],GI50 (A498 renal) [µM]
CCOC(=O)/C(C=Nc1ccc(-c2nc3ccccc3[nH]2)cc1)=C(/C)O,15.4,42.4,10.7,33.4,19.4,> 50,9.65,31.3,17.1,36.3,11.7,34.5,25.4,> 50,8.74,15.6,,,,
Cc1cc(CC(=O)NCCO)n(CCO)c(=O)c1,,> 100,,> 100,,> 100,,,,> 100,,> 100,,> 100,,> 100,> 100,,,
CCOC(=O)c1c(C)nc2c(c1N)CC(=O)N2Cc1ccc(OC)cc1,9.56,> 100,> 100,> 100,2.29,6.5,3.77,> 100,> 100,> 100,4.29,> 100,5.12,> 100,4.14,> 100,> 100,> 100,,
COc1ccc(-c2cc3c(c4cc(OC)ccc24)C(=O)OC3=O)cc1,,> 100,,> 100,,> 100,,> 100,,> 100,,> 100,,> 100,,> 100,> 100,,,
O=[N+]([O-])c1ccc(C[P+](c2ccccc2)(c2ccccc2)c2ccccc2)cc1,,> 100,,> 100,,,,,,> 100,,,,> 100,,> 100,> 100,,> 100,
CCN(CC)c1c(C(=O)/C=C/c2ccc(Cl)cc2)c(-c2ccccc2)nn(C)c1=O,,3.38,,4.01,,4.33,,,,3.23,,3.4,,4,,3.18,4.35,,4.44,
COC(=O)NC(=O)c1cn(C2OC(CO)C(O)C2O)c(=O)[nH]c1=O (stereo unspecified),,> 100,,> 100,,> 100,,,,> 100,,> 100,,> 100,,> 100,> 100,,,
O=C(NCCCCNc1cccccc1=O)OCc1ccccc1,,> 100,,> 100,,,,,,> 100,,> 100,,> 100,,> 100,> 100,,> 100,
CC1=C(C(=O)Nc2cc(=O)n(C)c(=O)n2C)C(c2ccco2)C(C(=O)Nc2cc(=O)n(C)c(=O)n2C)=C(C)N1,,> 100,,> 100,,> 100,,,,> 100,,> 100,,> 100,,> 100,> 100,,> 100,
C[C@]12C[C@H](CCCCCCNCCOC(=O)NCCCc3ccc(N(CCCl)CCCl)cc3)C3=C4CCC(=O)C=C4CCC3C1CC[C@@H]2O (stereo partly specified),,,1.45,3.9,,,2.01,3.44,5.84,11,1.2,3.86,1.85,4.49,,,5.15,2.29,3.56,1.93
